Experimental findings from the NIST ThermoML archive (doi:10.1016/j.fluid.2011.11.020) are described below.

Numbers after ± are expanded uncertainties.

For the data set the following is noted: Liquid, Ebulliometric method (Recirculating still).

As to `c1ccsc1` [thiophene], the Normal boiling temperature was 84.27 ± 0.2 °C.

Regarding `C=C(C)C(C)C` [2,3-dimethyl-1-butene], the Normal boiling temperature came to 55.73 ± 0.2 °C.

As for `CCC(C)C` [2-methylbutane], the Normal boiling temperature was 28.00 ± 0.2 °C.

As to `CC(C)=C(C)C` [2,3-dimethyl-2-butene], the Normal boiling temperature worked out at 73.00 ± 0.21 °C.

In general, vapor or sublimation pressure refers to the equilibrium pressure above the liquid or solid. For `CCCCCCC` [heptane], the Normal boiling temperature stood at 98.49 ± 0.2 °C. In addition, the “vapor or sublimation pressure” value (370.27 K) is listed as 97.43 ± 0.14 kPa. The “vapor or sublimation pressure” value (370.74 K) was 98.52 ± 0.15 kPa. Besides, the “vapor or sublimation pressure” value (370.93 K) is given as 99.39 ± 0.17 kPa. In addition, the “vapor or sublimation pressure” value (371.13 K) was found to be 99.78 ± 0.16 kPa. Moreover, the “vapor or sublimation pressure” value (371.52 K) is on record as 101.07 ± 0.17 kPa. For the same molecule, the “vapor or sublimation pressure” value (372.25 K) is given as 103.43 ± 0.11 kPa. Also, for the setting “372.36 K”, the “vapor or sublimation pressure” value was 103.56 ± 0.17 kPa. Moreover, under “372.56 K”, the “vapor or sublimation pressure” value was 104.41 ± 0.15 kPa. Moreover, for the setting “372.76 K”, the “vapor or sublimation pressure” value is recorded as 104.67 ± 0.17 kPa. In addition, the “vapor or sublimation pressure” value (372.97 K) is on record as 105.83 ± 0.19 kPa. In addition, where the note is “373.17 K”, the “vapor or sublimation pressure” value is recorded as 106.29 ± 0.14 kPa. Moreover, the “vapor or sublimation pressure” value (373.48 K) stood at 107.02 ± 0.14 kPa.
